Holding throughout (format): cell-based
In one data set the test system is Escherichia coli MG1655. The following applies: MG1655, 16 h. The text has this:
(§1) Peptides were synthesized on an automated Liberty Blue synthesizer (CEM Corp., Matthews, NC, USA) using solid-phase Fmoc chemistry with microwave-assisted heating. Two types of resin were selected for peptide synthesis to accommodate different molecular weights. Fmoc-Rink amide aminomethyl-polystyrene resin (ABCR GmbH & Co KG, Karlsruhe, Germany) with a loading capacity of 0.78 mmol/g was used for peptides with a molecular weight of up to 3 kDa. For peptides with a molecular weight exceeding 3 kDa, Fmoc-Rink amide PEG MBHA resin (ABCR GmbH & Co KG, Karlsruhe, Germany) with a loading capacity of 0.48 mmol/g was used. The target products were obtained with a purity of over 95% after purification of the peptides by reversed-phase HPLC on an AKTA Pure 25 M1 system (GE Healthcare Life Sciences, Chicago, IL, USA) equipped with a Zorbax SB-C18 column (Agilent Technologies, Santa Clara, CA, USA) and UV detection. All HPLC-spectra and HRMS-spectra are available at the Supplementary Materials (Figures S1–S23). The antimicrobial activity of synthetic peptides was measured using the standard microdilution method in microtiter plates. Peptides were dissolved in water to a concentration of 1 mM. Cultures of Bacillus subtilis 168 HT and Escherichia coli MG1655 were grown in a shaker at 30 °C in MHB medium (BD Difco, Thermo Fisher Scientific Inc., Waltham, MA, USA) for 16 h. The resulting cultures were diluted 1:50 in fresh MHB medium and grown in a shaker at 37 °C until reaching mid-logarithmic phase. The bacterial cultures were then further diluted in MHB to a concentration of 10^6 CFU/mL.
(§2) Peptides were serially twofold diluted in MHB in 96-well plates to final concentrations ranging from 100 to 0.2 µM, with a total volume of 50 µL per well. Subsequently, 50 µL of bacterial suspension (10^6 CFU/mL) was added to each well. Plates were incubated overnight at 37 °C. Each experiment included positive controls (melittin) and negative controls (without peptide). Antimicrobial activity was assessed by measuring the optical density at 600 nm (OD600) using a microplate reader AMR-100.

A further data set relates to Bacillus subtilis 168 HT. The following applies: 16 h.
Excerpt: as §1, §2

Another data set deals with Expi293F cells. As to the kind of experiment: Cytotoxicity, MTT assay. The following applies: Figure 7 and text, 24 h, 200 to 0.0975 µM, NA = no activity within tested concentration range. (In general: Tetrazolium dyes change colour on reduction, which living cells bring about.)

Ends that are not written are not given here.

Experimental for Expi293F cells: For the synthesized peptides, we determined the minimum inhibitory concentration (MIC) against B. subtilis (MICBs) and E. coli (MICEc) and measured cytotoxicity (IC90) in Expi293F cells (human embryonic kidney cells) using an MTT assay (Figure 7A–C, Tables S1–S4).
Peptide cytotoxicity was assessed using the MTT assay on Expi293F cells (human embryonic kidney cells) (Thermo Fisher Scientific, Waltham, MA, USA). Viable cells with active metabolism reduce water-soluble MTT (Abcam, Cambridge, UK) to insoluble formazan, while dead cells lose this ability and produce no signal. The absorbance measured at 600 nm is proportional to the number of living cells. Expi293F cells were seeded in 96-well plates at a density of 1 × 10^5 cells/mL. After 24 h, peptides were added to the wells at final concentrations ranging from 200 to 0.0975 µM. […] Cells were incubated with peptides in a CO2 incubator at 37 °C and 5% CO2 for 24 h. […] Peptide cytotoxicity was evaluated by measuring optical density at 600 nm and 690 nm using a microplate reader AMR-100. Normalized absorbance was defined as (OD600–OD690). The percentage of cell viability was calculated using the formula: % Cell viability = (ODtreated/ODtotal) × 100, where ODtreated is the normalized absorbance of treated cells and ODtotal is the normalized absorbance of non-treated (control) cells.

Regarding EKGWRRWIFYCF-NH2 [A2R2P3], the “MIC E. coli” value with Escherichia coli MG1655 is listed as 50.0 µM. Moreover, the “MIC B. subtilis” value against Bacillus subtilis 168 HT turned out to be 25.0 µM.
Taken in the same sequence, the figures for EKGRRRWIFYFF-NH2 [A2R3P7] were 12.5 µM and 25.0 µM.
In the case of “SWLSKTAKKLENSAKKRISEGIAIAIQGGPR-NH2 [cecropin, reference compound]”, the “MIC E. coli” value in the data set on Escherichia coli MG1655 is recorded as 0.4 µM. Further, the “IC90 (cytotoxicity, concentration that inhibits 90% of cell growth)” value with Expi293F cells was 200 µM.
“EKRWRRLIFNYF-NH2 [Hm-AMP2, reference compound]”: in the data set with Escherichia coli MG1655, the “MIC E. coli” value was determined as 3.1 µM. Besides, the “MIC B. subtilis” value with Bacillus subtilis 168 HT worked out at 12.5 µM.
As to EIGWRRRICNYL-NH2 [A2R2P7], the “MIC E. coli” value in the data set on Escherichia coli MG1655 is 25.0 µM. Also, the “MIC B. subtilis” value with Bacillus subtilis 168 HT stood at 6.2 µM.
Taken in the same sequence, the figures for EKGWLRRIFYCF-NH2 [A2R3P8] were 25.0 µM and 6.2 µM.
Taken in the same sequence, the figures for EKGWRRWIFNYF-NH2 [A2R1P5] were 6.2 µM and 6.2 µM.
As to EKGWRRWIFFSF-NH2 [A2R3P6], the “MIC E. coli” value against Escherichia coli MG1655 was 12.5 µM. In the data set with Bacillus subtilis 168 HT, the “MIC B. subtilis” value stood at 12.5 µM.
For the substance EKDWPRRILYCF-NH2 [A2R3P10], in the data set with Bacillus subtilis 168 HT, the “MIC B. subtilis” value turned out to be 50.0 µM.
Regarding “SLMFKTVKKMDNSVKKRFREGMAIAMQCGPR-NH2 [CR2P9]”, the “MIC E. coli” value with Escherichia coli MG1655 is listed as 3.1 µM. Further, the “MIC B. subtilis” value against Bacillus subtilis 168 HT is given as 25.0 µM.
Taken in the same sequence, the figures for “SFVCKTVKKMNNSAKKGFREGIALAIQGGPR-NH2 [CR2P8]” were 6.2 µM and 25.0 µM.
Regarding “SLMFKTVKKMDNSAKKRIREGIAIAIQGGPR-NH2 [CR1P5]”, the “MIC E. coli” value in the data set with Escherichia coli MG1655 was determined as 6.2 µM.
For the substance “SLMFITVKKLDNSSRIRIRVGIAIAIQGGPR-NH2 [CR2P2]”, the “MIC E. coli” value against Escherichia coli MG1655 is 25.0 µM. In addition, the “MIC B. subtilis” value against Bacillus subtilis 168 HT is 25.0 µM.
For the substance “SLIFKIVKKMDDIGKKRIREGIAIPLQGGPR-NH2 [CR2P7]”, in the data set on Escherichia coli MG1655, the “MIC E. coli” value is 50.0 µM.
